Inconclusive results and toxic doses are left out. How the source made its calls: active means survival T/C of 150% or more; inactive means T/C below 125% in these data.
Test system: CD2F1 mice, L1210 leukemia ip, survival T/C
Test: NCI In Vivo Anticancer Drug Screen. Data for tumor model L1210 Leukemia (intraperitoneal) in CD2F1 (CDF1) mice
Conditions: higher = longer survival
Procedure, shortened: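 Each value reflects a quotient of treated over vehicle control outcomes in mice with a transplanted tumor.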

[1] = endpoint: mean survival time, dose: 100.0 mg/kg/injection, schedule: Q04DX003 (ip), vehicle: saline with Tween-80
[2] = endpoint: mean survival time, dose: 200.0 mg/kg/injection, schedule: Q04DX003 (ip), vehicle: saline with Tween-80
[3] = endpoint: mean survival time, dose: 100.0 mg/kg/injection, schedule: Q01DX001 (ip), vehicle: saline
[4] = endpoint: mean survival time, dose: 200.0 mg/kg/injection, schedule: Q01DX001 (ip), vehicle: saline
[5] = endpoint: mean survival time, dose: 400.0 mg/kg/injection, schedule: Q01DX001 (ip), vehicle: saline
[6] = endpoint: mean survival time, dose: 100.0 mg/kg/injection, schedule: Q01DX009 (ip), vehicle: saline
[7] = endpoint: mean survival time, dose: 200.0 mg/kg/injection, schedule: Q01DX009 (ip), vehicle: saline

Measured: T/C

OCC1OC(c2cccs2)C(O)C1O (stereo not given)
inactive: endpoint: median survival time, dose: 12.5 mg/kg/injection, schedule: Q01DX005 (ip), vehicle: saline 102 % of control | endpoint: median survival time, dose: 25.0 mg/kg/injection, schedule: Q01DX005 (ip), vehicle: saline 98 % of control | endpoint: median survival time, dose: 50.0 mg/kg/injection, schedule: Q01DX005 (ip), vehicle: saline 92 % of control | endpoint: median survival time, dose: 100.0 mg/kg/injection, schedule: Q01DX005 (ip), vehicle: saline 98 % of control | endpoint: median survival time, dose: 200.0 mg/kg/injection, schedule: Q01DX005 (ip), vehicle: saline 106 % of control

CSc1nc(C)cc(N)n1
inactive: [1] 107 % of control | [2] 102 % of control

O=C1NC(=O)C2(CCN(Cc3ccccc3)CC2)N1
inactive: endpoint: mean survival time, dose: 100.0 mg/kg/injection, schedule: Q01DX001 (ip), vehicle: saline with Tween-80 104 % of control | endpoint: mean survival time, dose: 200.0 mg/kg/injection, schedule: Q01DX001 (ip), vehicle: saline with Tween-80 101 % of control | endpoint: mean survival time, dose: 400.0 mg/kg/injection, schedule: Q01DX001 (ip), vehicle: saline with Tween-80 101 % of control

CC(=O)OCC1OC(n2ncnc2CBr)C(OC(C)=O)C(OC(C)=O)C1OC(C)=O (stereo not given)
inactive: endpoint: median survival time, dose: 12.5 mg/kg/injection, schedule: Q01DX005 (ip), vehicle: distilled water + Tween-80 108 % of control | endpoint: median survival time, dose: 25.0 mg/kg/injection, schedule: Q01DX005 (ip), vehicle: distilled water + Tween-80 97 % of control | endpoint: median survival time, dose: 50.0 mg/kg/injection, schedule: Q01DX005 (ip), vehicle: distilled water + Tween-80 104 % of control

CN(/N=C/c1ccccc1)C(=S)Nc1ccccc1
inactive: endpoint: mean survival time, dose: 31.25 mg/kg/injection, schedule: Q04DX003 (ip), vehicle: Klucel (hydroxypropylcellulose) (HPC) 101 % of control | endpoint: mean survival time, dose: 62.5 mg/kg/injection, schedule: Q04DX003 (ip), vehicle: Klucel (hydroxypropylcellulose) (HPC) 103 % of control | endpoint: mean survival time, dose: 125.0 mg/kg/injection, schedule: Q04DX003 (ip), vehicle: Klucel (hydroxypropylcellulose) (HPC) 100 % of control

CCCN(CCC)S(=O)(=O)c1ccc(NC(=O)OCc2ccccc2)cc1
inactive: [3] 103 % of control | [4] 103 % of control | [5] 93 % of control

COc1cc2cc(c1Cl)N(C)C(=O)C[C@H](OC(=O)[C@H](C)N(C)C(C)=O)[C@]1(C)O[C@H]1[C@H](C)[C@@H]1C[C@@](O)(NC(=O)O1)[C@H](OC)C=C/C=C(\C)C2
inactive: endpoint: mean survival time, dose: 0.5 mg/kg/injection, schedule: Q01DX009 (ip), vehicle: saline 104 % of control | endpoint: mean survival time, dose: 1.0 mg/kg/injection, schedule: Q01DX009 (ip), vehicle: saline 109 % of control | endpoint: mean survival time, dose: 2.0 mg/kg/injection, schedule: Q01DX009 (ip), vehicle: saline 107 % of control | endpoint: mean survival time, dose: 32.0 mg/kg/injection, schedule: Q01DX009 (ip), vehicle: saline 91 % of control | endpoint: mean survival time, dose: 8.0 micrograms/kg/injection, schedule: Q01DX009 (ip), vehicle: saline + alcohol 111 % of control | endpoint: mean survival time, dose: 12.0 micrograms/kg/injection, schedule: Q01DX009 (ip), vehicle: saline + alcohol 109 % of control | endpoint: mean survival time, dose: 16.0 micrograms/kg/injection, schedule: Q01DX009 (ip), vehicle: saline + alcohol 112 % of control | endpoint: mean survival time, dose: 32.0 micrograms/kg/injection, schedule: Q01DX009 (ip), vehicle: saline + alcohol 122 % of control | endpoint: mean survival time, dose: 200.0 micrograms/kg/injection, schedule: Q01DX009 (ip), vehicle: saline + alcohol 120 % of control | endpoint: median survival time, dose: 4.0 micrograms/kg/injection, schedule: Q01DX009 (ip), vehicle: clinical formulation 117 % of control | endpoint: median survival time, dose: 8.0 micrograms/kg/injection, schedule: Q01DX009 (ip), vehicle: clinical formulation 117 % of control | endpoint: median survival time, dose: 16.0 micrograms/kg/injection, schedule: Q04DX003 (ip), vehicle: clinical formulation 112 % of control | endpoint: median survival time, dose: 32.0 micrograms/kg/injection, schedule: Q04DX003 (ip), vehicle: clinical formulation 117 % of control | endpoint: median survival time, dose: 64.0 micrograms/kg/injection, schedule: Q01DX001 (ip), vehicle: clinical formulation 110 % of control | endpoint: median survival time, dose: 512.0 micrograms/kg/injection, schedule: Q04DX003 (ip), vehicle: clinical formulation 96 % of control

CC1(C)N=C(N)N=C(N)N1c1cccc(OCCOc2cccc(N)c2)c1
inactive: endpoint: mean survival time, dose: 25.0 mg/kg/injection, schedule: Q01DX001 (ip), vehicle: Klucel (hydroxypropylcellulose) (HPC) 97 % of control | endpoint: mean survival time, dose: 50.0 mg/kg/injection, schedule: Q01DX001 (ip), vehicle: Klucel (hydroxypropylcellulose) (HPC) 97 % of control

CC(C)OC(=O)C12Oc3ccc(-c4ccc5c(c4O)C(O)=C4C(=O)CC(C)C(O)C4(C(=O)OC(C)C)O5)c(O)c3C(O)=C1C(=O)CC(C)C2O (stereo not given)
inactive: endpoint: mean survival time, dose: 1.25 mg/kg/injection, schedule: Q01DX009 (ip), vehicle: saline with Tween-80 102 % of control | endpoint: mean survival time, dose: 2.5 mg/kg/injection, schedule: Q01DX009 (ip), vehicle: saline with Tween-80 95 % of control | endpoint: mean survival time, dose: 5.0 mg/kg/injection, schedule: Q01DX009 (ip), vehicle: saline with Tween-80 98 % of control

CCOC(OCC)c1ccccc1 (tested in a mixture with another compound)
inactive: [1] 97 % of control | [2] 97 % of control | endpoint: mean survival time, dose: 400.0 mg/kg/injection, schedule: Q04DX003 (ip), vehicle: saline with Tween-80 97 % of control

Cc1ccc(/C=C2\CC(C)(C)c3ccccc3C2=O)cc1
inactive: [6] 96 % of control | endpoint: mean survival time, dose: 100.0 mg/kg/injection, schedule: Q04DX003 (ip), vehicle: other 104 % of control | [7] 94 % of control | endpoint: mean survival time, dose: 200.0 mg/kg/injection, schedule: Q04DX003 (ip), vehicle: other 100 % of control | endpoint: mean survival time, dose: 400.0 mg/kg/injection, schedule: Q01DX009 (ip), vehicle: saline 94 % of control | endpoint: mean survival time, dose: 400.0 mg/kg/injection, schedule: Q04DX003 (ip), vehicle: other 105 % of control

COc1ccc(OCCC(=O)O)cc1
inactive: endpoint: mean survival time, dose: 50.0 mg/kg/injection, schedule: Q01DX009 (ip), vehicle: saline 119 % of control | [6] 105 % of control | [7] 105 % of control

Nc1nc(N)c2nc(CN(CCc3ccccc3)c3ccc(C(=O)NC(CCC(=O)O)C(=O)O)cc3)cnc2n1 (stereo not given)
inactive: endpoint: mean survival time, dose: 20.0 mg/kg/injection, schedule: Q01DX009 (ip), vehicle: sodium bicarbonate 100 % of control | endpoint: mean survival time, dose: 40.0 mg/kg/injection, schedule: Q01DX009 (ip), vehicle: sodium bicarbonate 105 % of control | endpoint: mean survival time, dose: 80.0 mg/kg/injection, schedule: Q01DX009 (ip), vehicle: sodium bicarbonate 108 % of control | endpoint: mean survival time, dose: 100.0 mg/kg/injection, schedule: Q01DX001 (ip), vehicle: sodium bicarbonate 96 % of control | endpoint: mean survival time, dose: 200.0 mg/kg/injection, schedule: Q01DX001 (ip), vehicle: sodium bicarbonate 98 % of control | endpoint: mean survival time, dose: 400.0 mg/kg/injection, schedule: Q01DX001 (ip), vehicle: sodium bicarbonate 102 % of control

Cc1nc(C)c2c(n1)Oc1ccc3ccccc3c1C2
inactive: [3] 97 % of control | [4] 97 % of control | [5] 97 % of control

Reference: PubChem BioAssay AID256 (DTP/NCI, 2004)
